Measurements: PubChem BioAssay (NCI)
In brackets after ≈: the same amount, converted by molar mass.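 Cells were grown in 96-well plates and exposed to each compound for 48 hours at five concentrations; endpoints were interpolated linearly between bracketing concentrations, or set to the highest concentration if not reached. GI50 is the concentration that inhibits growth by half. TGI marks complete inhibition of growth.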

What was measured:
Experiment in all cases: growth of human tumour cells (NCI), 48 h
BT-549 breast = tested on: BT-549 breast
CCRF-CEM leukemia = tested on: CCRF-CEM leukemia
HOP-92 NSCLC = tested on: HOP-92 NSCLC
LOX IMVI melanoma = tested on: LOX IMVI melanoma
NCI-H23 lung = tested on: NCI-H23 lung
RPMI-8226 leukemia = tested on: RPMI-8226 leukemia
UO-31 renal = tested on: UO-31 renal
786-0 renal = tested on: 786-0 renal
A498 renal = tested on: A498 renal
A549 NSCLC = tested on: A549 NSCLC
ACHN renal = tested on: ACHN renal
CAKI-1 renal = tested on: CAKI-1 renal
DU-145 prostate = tested on: DU-145 prostate
EKVX NSCLC = tested on: EKVX NSCLC
HCC-2998 colon = tested on: HCC-2998 colon
HCT-116 colon = tested on: HCT-116 colon
HCT-15 colon = tested on: HCT-15 colon
HL-60(TB) leukemia = tested on: HL-60(TB) leukemia
HOP-62 NSCLC = tested on: HOP-62 NSCLC
HS 578T breast = tested on: HS 578T breast
HT29 colon = tested on: HT29 colon
IGROV1 ovarian = tested on: IGROV1 ovarian
K-562 leukemia = tested on: K-562 leukemia
KM12 colon = tested on: KM12 colon
M14 melanoma = tested on: M14 melanoma
MALME-3M melanoma = tested on: MALME-3M melanoma
MCF7 breast = tested on: MCF7 breast
MDA-MB-231 breast = tested on: MDA-MB-231 breast
MDA-MB-435 = tested on: MDA-MB-435
MOLT-4 leukemia = tested on: MOLT-4 leukemia
NCI-H226 lung = tested on: NCI-H226 lung
NCI-H460 lung = tested on: NCI-H460 lung
NCI-H522 lung = tested on: NCI-H522 lung
NCI/ADR-RES ovarian = tested on: NCI/ADR-RES ovarian
OVCAR-3 ovarian = tested on: OVCAR-3 ovarian
OVCAR-4 ovarian = tested on: OVCAR-4 ovarian
OVCAR-5 ovarian = tested on: OVCAR-5 ovarian
OVCAR-8 ovarian = tested on: OVCAR-8 ovarian
PC-3 prostate = tested on: PC-3 prostate
RXF 393 renal = tested on: RXF 393 renal
SF-268 CNS = tested on: SF-268 CNS
SF-295 CNS = tested on: SF-295 CNS
SF-539 CNS = tested on: SF-539 CNS
SK-MEL-2 melanoma = tested on: SK-MEL-2 melanoma
SK-MEL-28 melanoma = tested on: SK-MEL-28 melanoma
SK-MEL-5 melanoma = tested on: SK-MEL-5 melanoma
SK-OV-3 ovarian = tested on: SK-OV-3 ovarian
SN12C renal = tested on: SN12C renal
SNB-19 CNS = tested on: SNB-19 CNS
SNB-75 CNS = tested on: SNB-75 CNS
SW-620 colon = tested on: SW-620 colon
TK-10 renal = tested on: TK-10 renal
U251 CNS = tested on: U251 CNS
UACC-257 melanoma = tested on: UACC-257 melanoma
UACC-62 melanoma = tested on: UACC-62 melanoma

SMILES: COc1cc(C=C2C(=O)NC(=O)NC2=O)ccc1OCc1ccccc1
- GI50 (BT-549 breast): 33.9 µg/mL
- GI50 (CCRF-CEM leukemia): 79.7 µg/mL
- GI50 (HOP-92 NSCLC): 71.8 µg/mL (≈ 204 µM)
- GI50 (LOX IMVI melanoma): 87.8 µg/mL
- GI50 (NCI-H23 lung): 69.9 µg/mL
- GI50 (RPMI-8226 leukemia): 22.3 µg/mL
- GI50 (UO-31 renal): 61.2 µg/mL

SMILES: C=CC(=O)N1CCN(CCCn2c(=O)c(-c3c(Cl)c(OC)cc(OC)c3Cl)cc3cnc(NC)nc32)CC1
- GI50 (786-0 renal): 1.32 µM
- TGI (786-0 renal): 17.2 µM
- TGI (A498 renal): 1.81 µM
- GI50 (A549 NSCLC): 4.41 µM
- TGI (A549 NSCLC): 19.7 µM
- GI50 (ACHN renal): 0.71 µM
- TGI (ACHN renal): 11.6 µM
- GI50 (BT-549 breast): 0.681 µM
- TGI (BT-549 breast): 16 µM
- GI50 (CAKI-1 renal): 0.782 µM
- TGI (CAKI-1 renal): 13.6 µM
- GI50 (CCRF-CEM leukemia): 2.04 µM
- TGI (CCRF-CEM leukemia): 11.9 µM
- GI50 (DU-145 prostate): 2.69 µM
- TGI (DU-145 prostate): 17.7 µM
- GI50 (EKVX NSCLC): 4.38 µM
- TGI (EKVX NSCLC): 19.6 µM
- GI50 (HCC-2998 colon): 10.9 µM
- TGI (HCC-2998 colon): 24.6 µM
- GI50 (HCT-116 colon): 2.63 µM
- TGI (HCT-116 colon): 17.1 µM
- GI50 (HCT-15 colon): 2.63 µM
- TGI (HCT-15 colon): 15 µM
- GI50 (HL-60(TB) leukemia): 2.8 µM
- TGI (HL-60(TB) leukemia): 29 µM
- GI50 (HOP-62 NSCLC): 5.56 µM
- TGI (HOP-62 NSCLC): 19.3 µM
- GI50 (HS 578T breast): 2.25 µM
- TGI (HS 578T breast): 51.8 µM
- GI50 (HT29 colon): 4.4 µM
- TGI (HT29 colon): 20 µM
- GI50 (IGROV1 ovarian): 0.888 µM
- TGI (IGROV1 ovarian): 13.8 µM
- GI50 (K-562 leukemia): 5.96 µM
- TGI (K-562 leukemia): > 100 µM
- GI50 (KM12 colon): 4.61 µM
- TGI (KM12 colon): 19.9 µM
- GI50 (LOX IMVI melanoma): 1.67 µM
- TGI (LOX IMVI melanoma): 15 µM
- GI50 (M14 melanoma): 1.67 µM
- TGI (M14 melanoma): 16.8 µM
- GI50 (MALME-3M melanoma): 1.7 µM
- TGI (MALME-3M melanoma): 12.5 µM
- GI50 (MCF7 breast): 8.06 µM
- TGI (MCF7 breast): 31.8 µM
- GI50 (MDA-MB-231 breast): 3.52 µM
- TGI (MDA-MB-231 breast): 14.6 µM
- GI50 (MDA-MB-435): 2.74 µM
- TGI (MDA-MB-435): 13.8 µM
- GI50 (MOLT-4 leukemia): 1.83 µM
- TGI (MOLT-4 leukemia): > 100 µM
- GI50 (NCI-H226 lung): 0.0408 µM
- TGI (NCI-H226 lung): 20.7 µM
- GI50 (NCI-H23 lung): 5.57 µM
- TGI (NCI-H23 lung): 20.9 µM
- GI50 (NCI-H460 lung): 3.22 µM
- TGI (NCI-H460 lung): 19 µM
- GI50 (NCI-H522 lung): 2.51 µM
- TGI (NCI-H522 lung): 14.6 µM
- GI50 (NCI/ADR-RES ovarian): 7.12 µM
- TGI (NCI/ADR-RES ovarian): 67.6 µM
- GI50 (OVCAR-3 ovarian): 5.6 µM
- TGI (OVCAR-3 ovarian): 20.4 µM
- GI50 (OVCAR-4 ovarian): 1.14 µM
- TGI (OVCAR-4 ovarian): 25 µM
- GI50 (OVCAR-5 ovarian): 15.8 µM
- TGI (OVCAR-5 ovarian): 33.5 µM
- GI50 (OVCAR-8 ovarian): 3.95 µM
- TGI (OVCAR-8 ovarian): 22.9 µM
- GI50 (PC-3 prostate): 2.5 µM
- TGI (PC-3 prostate): 11.4 µM
- GI50 (RPMI-8226 leukemia): 1.03 µM
- TGI (RPMI-8226 leukemia): 4.09 µM
- GI50 (RXF 393 renal): 1.33 µM
- TGI (RXF 393 renal): 12.9 µM
- GI50 (SF-268 CNS): 3.02 µM
- TGI (SF-268 CNS): 21.3 µM
- GI50 (SF-295 CNS): 3.54 µM
- TGI (SF-295 CNS): 16.5 µM
- GI50 (SF-539 CNS): 1.58 µM
- TGI (SF-539 CNS): 9.5 µM
- GI50 (SK-MEL-2 melanoma): 1.13 µM
- TGI (SK-MEL-2 melanoma): 6.31 µM
- GI50 (SK-MEL-28 melanoma): 7.07 µM
- TGI (SK-MEL-28 melanoma): 20.9 µM
- GI50 (SK-MEL-5 melanoma): 1.65 µM
- TGI (SK-MEL-5 melanoma): 12.3 µM
- GI50 (SK-OV-3 ovarian): 2.18 µM
- TGI (SK-OV-3 ovarian): 8.38 µM
- GI50 (SN12C renal): 3.13 µM
- TGI (SN12C renal): 16.2 µM
- GI50 (SNB-19 CNS): 7.32 µM
- TGI (SNB-19 CNS): 20.7 µM
- TGI (SNB-75 CNS): 9.36 µM
- GI50 (SW-620 colon): 4.07 µM
- TGI (SW-620 colon): 34.2 µM
- GI50 (TK-10 renal): 1.75 µM
- TGI (TK-10 renal): 16.6 µM
- GI50 (U251 CNS): 2.57 µM
- TGI (U251 CNS): 17 µM
- GI50 (UACC-257 melanoma): 3.8 µM
- TGI (UACC-257 melanoma): 18 µM
- GI50 (UACC-62 melanoma): 2.79 µM
- TGI (UACC-62 melanoma): 15.1 µM
- GI50 (UO-31 renal): 0.849 µM
- TGI (UO-31 renal): 12.4 µM
